ChEMBL document CHEMBL1201862, “PubChem BioAssay data set” (2004)
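These data come from cells grown in 96-well plates and exposed to compound for 48 hours at five concentrations. GI50 is the concentration that inhibits growth by half.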 Calls of active or inactive are those of the source. Rule as the data show it: active = GI50 up to about 1.1 µM and inactive = higher.

Key:
Test in all cases: NCI-60 cell line screen, 48 h
SN12C = test system: SN12C
RPMI-8226 = test system: RPMI-8226
SNB-75 = test system: SNB-75
MCF7 = test system: MCF7
CCRF-CEM = test system: CCRF-CEM
NCI/ADR-RES = test system: NCI/ADR-RES
IGROV-1 = test system: IGROV-1
SK-MEL-28 = test system: SK-MEL-28
CAKI-1 = test system: CAKI-1
OVCAR-4 = test system: OVCAR-4
RXF 393 = test system: RXF 393
SW-620 = test system: SW-620
SK-MEL-5 = test system: SK-MEL-5
HOP-92 = test system: HOP-92
OVCAR-3 = test system: OVCAR-3
SF-268 = test system: SF-268
UACC-257 = test system: UACC-257
MDA-MB-435 = test system: MDA-MB-435
SK-MEL-2 = test system: SK-MEL-2
SF-295 = test system: SF-295

| SMILES | GI50 (SN12C) | GI50 (RPMI-8226) | GI50 (SNB-75) | GI50 (MCF7) | GI50 (CCRF-CEM) | GI50 (NCI/ADR-RES) | GI50 (IGROV-1) | GI50 (SK-MEL-28) | GI50 (CAKI-1) | GI50 (OVCAR-4) | GI50 (RXF 393) | GI50 (SW-620) | GI50 (SK-MEL-5) | GI50 (HOP-92) | GI50 (OVCAR-3) | GI50 (SF-268) | GI50 (UACC-257) | GI50 (MDA-MB-435) | GI50 (SK-MEL-2) | GI50 (SF-295) |
| --- | --- | --- | --- | --- | --- | --- | --- | --- | --- | --- | --- | --- | --- | --- | --- | --- | --- | --- | --- | --- |
| COc1ccc(C2C3=C(CCCC3=O)N(c3ccccc3)C3=C2C(=O)CCC3)cc1 | > 100 µM (inactive) | > 100 µM (inactive) | 28.2 µM (inactive) | 43.8 µM (inactive) | > 100 µM (inactive) | > 100 µM (inactive) | > 100 µM (inactive) | > 100 µM (inactive) | > 100 µM (inactive) | 61.5 µM (inactive) | 19.5 µM (inactive) | > 100 µM (inactive) | > 10 µM (inactive) | 29 µM (inactive) | 89.7 µM (inactive) | 79.4 µM (inactive) | – | – | – | – |
| COC(=O)c1cc(Br)c(C(=O)C(Cl)(Cl)Cl)[nH]1 | > 100 µM (inactive) | > 100 µM (inactive) | > 100 µM (inactive) | – | > 100 µM (inactive) | > 100 µM (inactive) | > 100 µM (inactive) | > 100 µM (inactive) | > 100 µM (inactive) | > 100 µM (inactive) | > 100 µM (inactive) | > 100 µM (inactive) | > 100 µM (inactive) | > 100 µM (inactive) | > 100 µM (inactive) | > 100 µM (inactive) | > 100 µM (inactive) | > 100 µM (inactive) | > 100 µM (inactive) | > 100 µM (inactive) |
| C[C@@H]1CC[C@@H]2[C@@H](C1)O[C@@H]([C@@H](C)OCc1ccccc1)SC2(C)C | 17.2 µM (inactive) | 16.5 µM (inactive) | 16.2 µM (inactive) | 18.7 µM (inactive) | 16.6 µM (inactive) | 20.1 µM (inactive) | 23.1 µM (inactive) | 24.7 µM (inactive) | 14.9 µM (inactive) | 20.1 µM (inactive) | 15.4 µM (inactive) | 18.4 µM (inactive) | 16.3 µM (inactive) | – | – | 23 µM (inactive) | 19.4 µM (inactive) | 16.9 µM (inactive) | 15.8 µM (inactive) | 16.6 µM (inactive) |
| COc1ccc(C2OC(N)=C(C#N)C3=C2CCCC3C)cc1OC (stereo unspecified) | > 100 µM (inactive) | > 100 µM (inactive) | 23.8 µM (inactive) | > 100 µM (inactive) | > 100 µM (inactive) | > 100 µM (inactive) | > 100 µM (inactive) | > 100 µM (inactive) | > 100 µM (inactive) | – | > 100 µM (inactive) | > 100 µM (inactive) | > 100 µM (inactive) | – | > 100 µM (inactive) | > 100 µM (inactive) | > 100 µM (inactive) | > 100 µM (inactive) | > 100 µM (inactive) | > 100 µM (inactive) |
| Cc1ccc(S(=O)(=O)NC(=O)NCC(=O)O)cc1 | > 100 µM (inactive) | > 100 µM (inactive) | > 100 µM (inactive) | > 100 µM (inactive) | > 100 µM (inactive) | > 100 µM (inactive) | > 100 µM (inactive) | > 100 µM (inactive) | – | > 100 µM (inactive) | > 100 µM (inactive) | > 100 µM (inactive) | > 100 µM (inactive) | > 100 µM (inactive) | – | > 100 µM (inactive) | > 100 µM (inactive) | – | > 100 µM (inactive) | > 100 µM (inactive) |
| CCCCCCc1cc2cc(C(=O)Nc3ccccc3F)c(=N)oc2cc1O | – | 3.66 µM (inactive) | – | 3.85 µM (inactive) | 4.76 µM (inactive) | 2.64 µM (inactive) | 3.34 µM (inactive) | 7.69 µM (inactive) | 6.32 µM (inactive) | 4.93 µM (inactive) | – | 12.6 µM (inactive) | 3.19 µM (inactive) | – | 6.38 µM (inactive) | 12.4 µM (inactive) | 6.64 µM (inactive) | 3.39 µM (inactive) | 7.21 µM (inactive) | 12.1 µM (inactive) |
| CC(O)(CCCCCl)c1nc2ccccc2s1 (stereo unspecified) | > 100 µM (inactive) | 97.5 µM (inactive) | > 100 µM (inactive) | 71.8 µM (inactive) | > 100 µM (inactive) | 98.2 µM (inactive) | > 100 µM (inactive) | > 100 µM (inactive) | > 100 µM (inactive) | > 100 µM (inactive) | – | > 100 µM (inactive) | 51.4 µM (inactive) | – | > 100 µM (inactive) | 52.8 µM (inactive) | > 100 µM (inactive) | > 100 µM (inactive) | > 100 µM (inactive) | > 100 µM (inactive) |
| O=c1cc(CBr)c2ccc(O)cc2o1 | 88.7 µM (inactive) | 38.5 µM (inactive) | > 100 µM (inactive) | 69.7 µM (inactive) | 54.3 µM (inactive) | 87.9 µM (inactive) | 81.8 µM (inactive) | 80.4 µM (inactive) | 43.6 µM (inactive) | – | 31.8 µM (inactive) | > 100 µM (inactive) | 45.9 µM (inactive) | – | 32 µM (inactive) | > 100 µM (inactive) | 64.4 µM (inactive) | 39 µM (inactive) | > 100 µM (inactive) | 45.7 µM (inactive) |
| CCN(CC)CCNC(=O)c1cc2cc(NC(=O)c3cc4cc(NC(=O)c5cc6cc([N+](=O)[O-])ccc6[nH]5)ccc4[nH]3)ccc2[nH]1 | > 100 µM (inactive) | < 0.01 µM (active) | > 100 µM (inactive) | – | 10.6 µM (inactive) | > 100 µM (inactive) | > 100 µM (inactive) | > 100 µM (inactive) | > 100 µM (inactive) | > 100 µM (inactive) | > 100 µM (inactive) | > 100 µM (inactive) | > 100 µM (inactive) | > 100 µM (inactive) | > 100 µM (inactive) | > 100 µM (inactive) | > 100 µM (inactive) | > 100 µM (inactive) | > 100 µM (inactive) | > 100 µM (inactive) |
| O=C(NCc1ccccc1)c1cc2ccc(O)c(O)c2cn1 | 17.6 µM (inactive) | 19.1 µM (inactive) | 17.8 µM (inactive) | – | 32.1 µM (inactive) | – | 23.7 µM (inactive) | 16.4 µM (inactive) | 17.2 µM (inactive) | 16.6 µM (inactive) | 16.6 µM (inactive) | 21.4 µM (inactive) | 11.1 µM (inactive) | 19.1 µM (inactive) | 18.2 µM (inactive) | 15.1 µM (inactive) | 15.6 µM (inactive) | – | 12.4 µM (inactive) | 16.9 µM (inactive) |
| CCOc1ccc(N/C(=C(/C(Cl)=C(/Cl)N(CC)CC)[N+](=O)[O-])n2nnc3ccccc32)cc1 | 21.6 µM (inactive) | 26.9 µM (inactive) | 20.3 µM (inactive) | 29.9 µM (inactive) | 19.8 µM (inactive) | 21.1 µM (inactive) | – | 20 µM (inactive) | 13.4 µM (inactive) | 19.7 µM (inactive) | 14.4 µM (inactive) | 14.2 µM (inactive) | – | – | 5.24 µM (inactive) | 15.7 µM (inactive) | 38.7 µM (inactive) | 19.5 µM (inactive) | 28.2 µM (inactive) | 30.6 µM (inactive) |
| CCc1cccc(C)c1NC(=O)C1=C(C)NC(C)=C(C(=O)Nc2c(C)cccc2CC)C1c1ccc2c(c1)OCO2 | 19.2 µM (inactive) | 16.8 µM (inactive) | 9.84 µM (inactive) | – | 18.8 µM (inactive) | – | 24.7 µM (inactive) | 15.6 µM (inactive) | 18.8 µM (inactive) | 20.1 µM (inactive) | 13.2 µM (inactive) | 20.2 µM (inactive) | 16.2 µM (inactive) | 18.2 µM (inactive) | 17.5 µM (inactive) | 20.3 µM (inactive) | 18.5 µM (inactive) | – | 15.1 µM (inactive) | 17.5 µM (inactive) |
| O=C(NCc1ccccc1)C1C(=O)C(=O)N(Cc2ccccc2)C1=O (stereo unspecified) | > 100 µM (inactive) | > 100 µM (inactive) | > 100 µM (inactive) | – | > 100 µM (inactive) | – | > 100 µM (inactive) | > 100 µM (inactive) | 0.0113 µM (active) | > 100 µM (inactive) | > 100 µM (inactive) | > 100 µM (inactive) | > 100 µM (inactive) | > 100 µM (inactive) | > 100 µM (inactive) | > 100 µM (inactive) | > 100 µM (inactive) | – | > 100 µM (inactive) | > 100 µM (inactive) |
| C=C(CCOC)CCC1CCCCC(CN(C)C)C1=O (stereo unspecified) | > 100 µM (inactive) | > 100 µM (inactive) | > 100 µM (inactive) | > 100 µM (inactive) | > 100 µM (inactive) | > 100 µM (inactive) | > 100 µM (inactive) | > 100 µM (inactive) | > 100 µM (inactive) | > 100 µM (inactive) | > 100 µM (inactive) | > 100 µM (inactive) | > 100 µM (inactive) | – | > 100 µM (inactive) | > 100 µM (inactive) | – | > 100 µM (inactive) | > 100 µM (inactive) | > 100 µM (inactive) |
| C[C@@H]1CC[C@H]2[C@H](C)C(OC3O[C@@H]4O[C@@]5(C)CC[C@H]6[C@H](C)CC[C@@H]([C@@H]3C)[C@@]46O5)O[C@@H]3O[C@@]4(C)CC[C@@H]1[C@]32O4 (stereo partly specified) | > 100 µM (inactive) | > 100 µM (inactive) | > 100 µM (inactive) | > 100 µM (inactive) | > 100 µM (inactive) | – | – | > 100 µM (inactive) | > 100 µM (inactive) | > 100 µM (inactive) | – | > 100 µM (inactive) | > 100 µM (inactive) | – | > 100 µM (inactive) | > 100 µM (inactive) | > 100 µM (inactive) | > 100 µM (inactive) | > 100 µM (inactive) | > 100 µM (inactive) |
